Columns and labels:
Assay type in all cases: binding
KRASGTP/S39C lite = target: T1, KRASGTP/S39C lite (Homo sapiens, UniProt P01116, C118S/C51S/C80L/G12V/S39C); test: Conjugate formation (cross-linking) assessed by SDS-PAGE
T1 construct: KRASGTP/S39C lite (in house; residues 1-169 containing G12V/S39C/C51S/C80L/C118S); made in house
Method: General Protocol: This protocol describes a method for the formation of target protein-compound conjugates.
(§1) Experimental Protocol: A 1:2 molar ratio of target protein and compound are mixed together in 12.5 mM HEPES pH 7.4, 75 mM NaCl buffer containing 2% DMSO. The reaction is incubated at 37° C. for 30 min, followed by overnight incubation at room temperature. Cross-linking efficiency is assessed by SDS-PAGE gel. Conjugates migrate slower than non-cross-linked target protein. For thiol reactive compounds, the Cys specific attachment of the compound to the target protein can be further confirmed by SDS-PAGE after the addition of 100 mM DTT to the reaction mixture, which reduces the conjugate back into its components.
Experimental Protocol: A 1:2 molar ratio of KRASGTP/S39C lite and C2-FK506 are mixed together in 12.5 mM HEPES pH 7.4, 75 mM NaCl buffer containing 2% DMSO. The reaction is incubated at 37° C. for 30 min, followed by overnight incubation at room temperature. Cross-linking efficiency is assessed by SDS-PAGE gel. Attachment of C2-FK506 to Cysteine 39 on KRASGTP/S39C lite is also assessed by incubation of the reaction mixture with 100 mM DTT.

[1] = target: T2, KRASGTP/S39C lite and FKBP12 (Homo sapiens, UniProt P01116+P62942, C118S/C51S/C80L/G12V/S39C); test: Ternary complex formation by SEC and SDS-PAGE; conditions: 1:2:2 compound:FKBP12:KRAS, SEC profile and SDS-PAGE of elution peaks
T2 construct: KRASGTP/S39C lite (in house; residues 1-169 containing G12V/S39C/C51S/C80L/C118S); made in house
Method: (§2) A 1:2:2 molar ratio of compound, presenter protein, and target protein are mixed together in 12.5 mM HEPES pH 7.4, 75 mM NaCl buffer containing 2% DMSO. The reaction is incubated at 37° C. for 30 min, followed by overnight incubation at room temperature. Pure complex is isolated by Size Exclusion Chromatography (SEC) purification. The reaction mixture is directly injected on a Superdex 75 column (CV 120 mL) pre-equilibrated with buffer containing 12.5 mM HEPES pH 7.4, 75 mM NaCl. Complex elutes at a higher molecular weight than unreacted target protein and presenter protein. To confirm presence of complex in the elution peak, samples are assessed by SDS-PAGE.
Experimental Protocol: A 1:2:2 molar ratio of C2-Holt, FKBP12, and KRASGTP/S39C lite are mixed together in 12.5 mM HEPES pH 7.4, 75 mM NaCl buffer containing 2% DMSO. The reaction is incubated at 37° C. for 30 min, followed by overnight incubation at room temperature. Pure complex is isolated by Size Exclusion Chromatography (SEC) purification. The reaction mixture is directly injected on a Superdex 75 column (CV 120 mL) pre-equilibrated with buffer containing 12.5 mM HEPES pH 7.4, 75 mM NaCl. […] To confirm the presence of KRASGTP/S39C lite and FKBP12 in the elution peak, samples are also assessed by SDS-PAGE.

[2] = target: T3, PTP1BS187C lite and FKBP12 (Homo sapiens, UniProt P18031+P62942, C121S/C32S/C92V/S187C); test: Ternary complex formation by SEC and SDS-PAGE; conditions: 1:3:3 compound:FKBP12:PTP1B, SEC profile and SDS-PAGE of elution peaks
T3 construct: (in house; residues 1-293 containing C32S/C92V/C121S/S187C); made in house
T3 sequence (P18031 1-293 C32S/C92V/C121S/S187C limits assumed): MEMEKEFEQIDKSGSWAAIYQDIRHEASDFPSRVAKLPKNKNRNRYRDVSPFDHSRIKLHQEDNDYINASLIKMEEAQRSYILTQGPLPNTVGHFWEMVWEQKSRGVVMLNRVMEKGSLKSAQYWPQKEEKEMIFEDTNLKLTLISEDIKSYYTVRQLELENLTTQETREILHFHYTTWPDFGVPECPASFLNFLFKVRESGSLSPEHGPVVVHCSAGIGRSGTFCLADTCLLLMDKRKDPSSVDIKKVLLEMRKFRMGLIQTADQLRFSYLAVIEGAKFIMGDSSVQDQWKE
T3 sequence (P62942 whole entry, the tested form may be a part): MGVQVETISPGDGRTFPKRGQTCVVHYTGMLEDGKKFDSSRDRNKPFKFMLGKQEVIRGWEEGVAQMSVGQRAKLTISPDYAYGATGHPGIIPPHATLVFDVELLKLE
Method: as §2
Equipment: Mini-PROTEAN TGX Gel (Bio-Rad), Superdex 75 (GE Healthcare, CV 120 mL) Experimental Protocol: A 1:3:3 molar ratio of C3SLF, FKBP12, and PTPIBswc lite are mixed together in 12.5 mM HEPES pH 7.4, 75 mM NaCl buffer containing 4% DMSO. The reaction is incubated at 37° C. for 30 min, followed by overnight incubation at room temperature. Pure complex is isolated by Size Exclusion Chromatography (SEC) purification. The reaction mixture is directly injected on a Superdex 75 column (CV 120 mL) pre-equilibrated with buffer containing 12.5 mM HEPES pH 7.4, 75 mM NaCl. […] To confirm the presence of PTP1BS187C lite and FKBP12 in the elution peak, samples are also assessed by SDS-PAGE. […]

KRASGTP/G12C [3] = target: T4, KRASGTP/G12C (Homo sapiens, UniProt P01116+P62942, G12C); test: Presenter dependency of disulfide cross-linking by mass spectrometry; conditions: 2 μM KRAS, 10 μM ligand, 4 hours room temperature, MS
T4 construct: KRASGTP/G12C (in-house, residues 1-169); made in house
Method: This protocol describes methods to analyzing cross-linking efficiency using mass spectrometry and gel shift assay in effort to assess the presenter dependency of conjugate formation.
Experimental protocol: In order to follow the kinetics of disulfide crosslinking reactions, Agilent 6230 TOF-LC/MS and Agilent 1260 HPLC instruments employing a AdvanceBio RP-mAb C4 column (2.1×100 mm, 3.5 μm) and equipped with an auto-sampler were used. HPLC grade acetonitrile and water (each containing 1.0 mM ammonium formate and 1% formic acid by volume) were used as mobile phase with the following ramp: 0.6 ml/min flow rate, water:acetonitrile=95:5 from 0.0 to 13.0 min ramping to water:acetonitrile=5:95 from 13.0 to 17.0 min. Total time=17.0 min.
All crosslinking reactions were performed in 1.5 mL amber colored glass vials equipped with 0.5 mL glass inserts. A water-soluble peptide (SEQ ID NO: 1: […]) was employed as an internal standard. Although the actual sequence of the internal standard is inconsequential, choice of amino acid residues were critical to avoid interference in the crosslinking assays. […] All reactions and standard solutions were prepared in HEPES (pH 7.4, 1.0 mM MgCl2) buffer.
Prior to every reaction, a standard curve was obtained for the individual components using a series of standard solutions (an example of standard curve analysis for FKBP12 is shown in Table 3 below). Using the data from standard curve, μmol of protein samples were plotted against the ratio of areas (sample:std) and a linear fit (y=mx+c) was employed to obtain the slope and intercept. The value of slope and intercept involved in these standard curves were accounted for during evaluation of the substrate and product concentration before and during the course of the reaction. For every substrate/product, an initial injection was followed up by a blank injection to verify presence of any residual protein/reagents. Based on this analysis the sequence of auto-sampler can be adjusted to included appropriate number of blank injections for removal of residual components, if any. The MS spectra were analyzed using Agilent MassHunter v B.07.0 software.
In a representative experiment to assess the presenter dependency of ligand cross-linking on the target protein, KRASGTP/G12C and either C3 or C4SLF ligand were incubated in the presence or absence of FKBP12 at concentrations of 2 μM KRAS, 10 μM FKBP12, 10 μM C3 or C4SLF for 4 hours at room temperature in 12.5 mM HEPES pH 7.4, 75 mM NaCl, 1 mM MgCl2, 3% DMSO. Analysis of the amount of KRAS undergoing disulfide cross-linking with the ligand using the method above.

KRASGTP/G12C [4] = target: T4, KRASGTP/G12C; test: Cross-linking gel shift assay (12% SDS-PAGE); conditions: 60 μM KRAS, 180 μM FKBP12, 180 μM ligand, quenched by MMTS
Method: In parallel to mass spectrometry analysis, cross-linking reactions with C3 or […] were subjected to gel shift assay using 12% SDS-PAGE in the presence or absence of FKBP12 at the same experimental condition described above except that cross-linking reactions were set up at higher concentrations (60 μM KRAS, 180 μM FKBP12, and 180 μM C3 or […]) and they were quenched by MMTS to terminate the reaction.

[5] = target: T5, KRASGDP/S39C lite and CypAC52S (Homo sapiens, UniProt P01116+P62937, C118S/C51S/C52S/C80L/G12V/S39C); test: Ternary complex formation by SEC and SDS-PAGE; conditions: 1:2:2 compound:CypAC52S:KRAS, SEC profile and SDS-PAGE of elution peaks
T5 construct: KRASGDP/S39C lite (in house; residues 1-169 containing G12V/S39C/C51S/C80L/C118S); made in house
Method: as §2
Equipment: Mini-PROTEAN TGX Gel (Bio-Rad), Superdex 75 (GE Healthcare, CV 120 mL) Experimental Protocol: A 1:2:2 molar ratio of SFAC4DS, CypAC52S, and KRASGDP/S39C lite are mixed together in 12.5 mM HEPES pH 7.4, 75 mM NaCl buffer containing 2% DMSO. The reaction is incubated at 37° C. for 30 min, followed by overnight incubation at room temperature. Pure complex is isolated by Size Exclusion Chromatography (SEC) purification. The reaction mixture is directly injected on a Superdex 75 column (CV 120 mL) pre-equilibrated with buffer containing 12.5 mM HEPES pH 7.4, 75 mM NaCl. […] To confirm the presence of KRASGDP/S39C lite and CypAC52S in the elution peak, samples are also assessed by SDS-PAGE.

CypAC52S = target: T6, CypAC52S (Homo sapiens, UniProt P62937, C52S); test: Presenter cross-linking assessed by SDS-PAGE; conditions: CypA with Cysteine 52 mutated to Serine
T6 construct: made in house
T6 sequence (P62937 whole entry C52S): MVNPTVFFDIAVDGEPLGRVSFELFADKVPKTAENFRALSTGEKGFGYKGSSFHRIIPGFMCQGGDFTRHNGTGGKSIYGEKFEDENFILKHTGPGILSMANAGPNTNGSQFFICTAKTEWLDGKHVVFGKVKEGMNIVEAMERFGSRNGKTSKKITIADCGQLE
Method: (§3) Experimental Protocol: A 1:2 molar ratio of KRASGTP/G12C lite and SFAX9DS are mixed together in 12.5 mM HEPES pH 7.4, 75 mM NaCl buffer containing 2% DMSO. The reaction is incubated at 37° C. for 30 min, followed by overnight incubation at room temperature. Cross-linking efficiency is assessed by SDS-PAGE gel. […] Cysteine 52 as a reactive Cysteine on CypA and was mutated to Serine to abrogate presenter cross-linking.

Wild-type CypA = Wild-type CypA (Homo sapiens, UniProt P62937); test: Presenter cross-linking assessed by SDS-PAGE
Chain of Wild-type CypA (P62937 whole entry): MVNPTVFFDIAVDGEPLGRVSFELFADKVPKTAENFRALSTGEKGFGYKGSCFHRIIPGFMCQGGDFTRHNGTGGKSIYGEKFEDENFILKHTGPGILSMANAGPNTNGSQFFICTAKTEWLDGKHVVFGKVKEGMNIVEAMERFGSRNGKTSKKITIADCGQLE
Method: as §3

KRASGTP/G12C lite = target: T7, KRASGTP/G12C lite (Homo sapiens, UniProt P01116, C118S/C51S/C80L/G12C); test: Conjugate formation (cross-linking) assessed by SDS-PAGE; conditions: 1:2 molar ratio protein:compound, 37° C. 30 min then overnight room temperature
T7 construct: KRASGTP/G12C lite (in house; residues 1-169 containing G12C/C51S/C80L/C118S); made in house
Method: as §1, §3

With CO[C@H]1C[C@@H](C)C/C(C)=C/[C@@H](CCCC(=O)NCCSSc2ccccn2)C(=O)C[C@H](O)[C@@H](C)[C@@H](/C(C)=C/[C@@H]2CC[C@@H](O)[C@H](OC)C2)OC(=O)[C@@H]2CCCCN2C(=O)C(=O)[C@]2(O)O[C@H]1[C@@H](OC)C[C@H]2C [Compound C2-FK506] as the molecule, how does the Cross-linking efficiency (KRASGTP/S39C lite; 1:2 molar ratio protein:compound, 37° C. 30 min then overnight room temperature, SDS-PAGE) read?
The Cross-linking efficiency was “cross-links efficiently”.

And the “Cys specific attachment of the compound” value (KRASGTP/S39C lite; SDS-PAGE after 100 mM DTT)?
Its value is “specific for Cysteine 39”.

Which “Formation of ternary complex” value [1] does the source give for CCC(C)(C)C(=O)C(=O)N1CCCC[C@H]1C(=O)OCCCC(=O)NCCSSc1ccccn1 [Compound C2Holt] here?
Its value is “confirm the formation”.

Which results are given for CCC(C)(C)C(=O)C(=O)N1CCCC[C@H]1C(=O)O[C@H](CCc1ccc(OC)c(OC)c1)c1cccc(NC(=O)CCSSc2ccccn2)c1 [Compound C3SLF]?
Formation of ternary complex [2]: confirm the formation; % xlink to KRAS (KRASGTP/G12C [3]; FKBP12 + (10 μM)): 47.5%; % xlink to KRAS (KRASGTP/G12C [3]; FKBP12 − (absent)): 9.6%; Ligand cross-linking efficiency in presence vs absence of FKBP12 (KRASGTP/G12C [4]): boosted significantly

How did the “% xlink to KRAS” value (KRASGTP/G12C [3]; FKBP12 + (10 μM)) turn out when CCC(C)(C)C(=O)C(=O)N1CCCC[C@H]1C(=O)O[C@H](CCc1ccc(OC)c(OC)c1)c1cccc(NC(=O)CCCSSc2ccccn2)c1 [Compound C4SLF, (R)-3-(3,4-dimethoxyphenyl)-1-(3-(4-(pyridin-2-yldisulfanyl)butanamido)phenyl)propyl (S)-1-(3,3-dimethyl-2-oxopentanoyl)piperidine-2-carboxylate] was run?
Its value is 69.8%.

And the “% xlink to KRAS” value (KRASGTP/G12C [3]; FKBP12 − (absent))?
The value was 7.0%.

And the “Ligand cross-linking efficiency in presence vs absence of FKBP12” value (KRASGTP/G12C [4])?
Its value is “boosted significantly”.

COC(=O)[C@@H]1CCCN(C(=O)[C@H](Cc2cccc(O)c2)NC(=O)[C@@H](NC(=O)CCCSSc2ccccn2)C(C)C)N1 [SFAC4DS] was tested. Which “Formation of ternary complex” value [5] did it give?
Its value is “confirm the formation”.

Which “Cross-linking to presenter protein” value (CypAC52S) does the source give for COC(=O)[C@@H]1CCCN(C(=O)[C@H](Cc2cccc(O)c2)NC(=O)[C@@H](NC(=O)CCOCCOCCSSc2ccccn2)C(C)C)N1 [SFAX9DS] here?
The value was “does not cross-link”.

What about the “Cross-linking to presenter protein” value (Wild-type CypA) of the same molecule?
Its value is “also cross-linked”.

And the Cross-linking efficiency (KRASGTP/G12C lite)?
Its Cross-linking efficiency is “cross-links efficiently”.

Reference: patent publication US20210285955A1, “METHODS AND REAGENTS FOR ANALYZING PROTEIN-PROTEIN INTERFACES” (Revolution Medicines, Inc., priority 2017, published 2021)
